Consider ten compounds from PMC8003391, “QSAR-Based Virtual Screening of Natural Products Database for Identification of Potent Antimalarial Hits” (Biomolecules, 2021).

SMILES strings stand for the structures. Read-outs that look alike come from different tables or passages of the source.

Data set [1] has as its system P. falciparum 3D7. As to the kind of experiment: In vitro P. falciparum growth inhibition assay (SybrGreen), chloroquine-sensitive 3D7 strain. Conditions: for inhibition at 5 µM: 3D7, read-out: inhibition of parasite growth. It counts as cell-based, Plasmodium falciparum. The protocol: (§1) Chloroquine-sensitive (3D7) and multi-drug-resistant (W2) P. falciparum strains were cultured following the candle jar method as described by Trager and Jensen. Briefly, parasites were maintained in RPMI 1640 medium supplemented with 10% A+ human plasma at 5% CO2 atmosphere. Ring stage synchronized cultures were obtained by two consecutive treatments with a 5% D-sorbitol solution [32] in 48 h intervals.
(§2) Parasite growth inhibition assays were conducted by distributing ring stage synchronized parasites at 2% hematocrit and 0.5% parasitemia in 96-well plates (NEST Biotechnology Co., Ltd., Wuxi, Jiangsu, China). Parasites were incubated in the presence of drugs in a two-fold 12-point serial dilution starting at 10 µM in duplicate. Chloroquine was used as an antimalarial standard. At the end of a 72 h incubation, parasitemia was determined by fluorescence reading at 490 nm excitation and 540 nm emission (BMG CLARIOstar, BMG Labtech Inc., Durham, NC, USA) using SybrGreen fluorescent dye as described by Hartwig et al.. Parasite growth inhibition was determined as a percentage relative to drug-free control. EC50 values were interpolated from log doses vs. inhibition curves in GraphPad Prism 6 (GraphPad, La Jolla, CA, USA).

Data set [2] deals with P. falciparum W2. Further details: method as in PMID 25461309. The following applies: read-out: EC50 against multi-resistant strain; cited from earlier work.
For data set [3], the system named is P. falciparum W2. As to the kind of experiment: In vitro P. falciparum growth inhibition assay (SybrGreen), multi-drug-resistant W2 strain. It counts as cell-based, Plasmodium falciparum. Conditions: for activity more potent than artesunate: W2, compared with artesunate EC50 = 5.7 nM. The procedure: as §1, §2
Data set [4] in a line: Cytotoxicity, MTT reduction assay. The following applies: human. It is filed as cell-based. The procedure:
Cytotoxicity of selected compounds was evaluated using the MTT reduction assay (3-[4,5-dimethyl-thiazol-2-yl]-2,5-diphenyltetrazolium chloride). Human hepatoma (HepG2) cells were cultured in Dulbecco’s Modified Eagle Medium supplemented with gentamycin (40 mg/L) and 10% heat-inactivated fetal bovine serum at 37 °C and 5% CO2. Cells were seeded in 96-well plates (NEST Biotechnology Co., Ltd., Wuxi, Jiangsu, China) at 10^5 cells per well and incubated in the presence of a serial dilution of the drugs starting at 100 µM. After 72 h of incubation, MTT was added to the wells. The optical density was measured at 570 nm (CLARIOStar, Labtech BMG Inc, Durham, NC, USA) and cell viability was expressed as a percentage relative to the untreated control. CC50 values were calculated by plotting a log dose vs. viability curve in GraphPad Prism 6 (GraphPad, La Jolla, CA, USA). The selectivity index (SI) of the compounds was determined by the expression:SI = (HepG2 CC50)/(Pf EC50), where HepG2 CC50 corresponds to the cytotoxic concentration of compounds in HepG2 cells and Pf EC50 relates to the 50% inhibitory concentration on P. falciparum 3D7 strain.
A general note: Tetrazolium dyes change colour on reduction, which living cells bring about.

[5] abbreviates: Plasmodium falciparum, 3D7, 72 h, chloroquine-sensitive 3D7 strain, 72 h, SybrGreen, ± standard deviation, read-out: EC50 Pf3D7.
Where [6] appears, read: Plasmodium falciparum, W2, 72 h, multi-drug-resistant W2 strain, 72 h, SybrGreen, ± standard deviation, read-out: EC50 PfW2.
Setting [7] is: multi-drug-resistant W2 strain, 72 h, SybrGreen, ± standard deviation, read-out: EC50 PfW2.
Where [8] appears, read: chloroquine-sensitive 3D7 strain, 72 h, SybrGreen, ± standard deviation, read-out: EC50 Pf3D7.
Where [9] appears, read: HepG2 cells, 72 h, MTT, read-out: CC50 HepG2.
[10] abbreviates: Plasmodium falciparum, W2, W2, text value, read-out: EC50 against P. falciparum W2.
Where [11] appears, read: Plasmodium falciparum, 3D7, 3D7, text value, read-out: EC50 against P. falciparum 3D7.

Broadly, the EC50 is the concentration that produces a half-maximal response. With `C[C@H]1[C@H](OC(=O)CCC(=O)O)O[C@@H]2O[C@@]3(C)CC[C@H]4[C@H](C)CC[C@@H]1[C@@]24OO3` [Artesunate, reference compound], the figures for the EC50 in data set [1] (setting [5]) and in data set [2] were 0.0016 µM and 0.0057 µM, respectively.

Regarding `CCN(CC)CCCC(C)Nc1ccnc2cc(Cl)ccc12` (stereo not drawn) [Chloroquine, reference compound], the EC50 was 0.147 ± 0.04 µM in data set [3] (Plasmodium falciparum, W2, 72 h, read-out: EC50 PfW2) and 0.0079 µM in data set [1] (Plasmodium falciparum, 3D7, 72 h, read-out: EC50 Pf3D7).

As usually defined, the inhibition is the percentage by which the read-out fell short of the control. In general, CC50 refers to the concentration giving 50% cytotoxicity. For the compound `COc1ccccc1CNC(=O)C1CN2CCC1CC2Cn1cc(-c2cccc(N)c2)nn1` (stereo not drawn) [LDT-586], the concentration for a half-maximal effect (EC50) in data set [3] (setting [6]) is under 5 µM; in data set [3] (setting [7]), 3.44 ± 1.3 µM; in data set [1] (setting [5]), under 5 µM; in data set [1] (setting [8]), 4.52 ± 0.91 µM. Further, the inhibition at 5 µM in data set [1] (Plasmodium falciparum, 72 h) was over 70%. Further, the 50% cytotoxic concentration (CC50) at 72 h in data set [4] was 98.6 µM.

As for `CCOC(=O)c1ccc2[nH]cc(C(=O)OCC)c(=O)c2c1` [LDT-588], the EC50 is under 5 µM in data set [1] (setting [5]) and 3.84 ± 1.45 µM in data set [1] (setting [8]). Also, in data set [1] (Plasmodium falciparum, 72 h), the inhibition at 5 µM was over 70%. Besides, the cytotoxic concentration (CC50) at 72 h in data set [4] (setting [9]) amounted to 67 ± 2.28 µM.

As for `Cn1c(=O)[nH]c2nnc(-c3ccc(Cl)cc3)nc2c1=O` [LDT-592], the EC50 in data set [3] (setting [6]) amounted to 3.11 ± 0.54 µM; in data set [1] (setting [5]) it was 9.09 ± 3.74 µM. Also, in data set [1] (Plasmodium falciparum, 72 h), the inhibition at 5 µM is over 70%. Also, in data set [4] (setting [9]), the CC50 at 72 h turned out to be 17 µM.

Take `COC(CNC(=O)CCC(=O)OC1OC2OC3(C)CCC4C(C)CCC(C1C)C24OO3)OC` (stereo not drawn) [LDT-597]: the EC50 in data set [3] (setting [10]) turned out to be 0.00056 µM; in data set [1] (setting [11]), 0.00054 µM. Also, in data set [3], the “activity more potent than artesunate” value was “about 10 fold”. Besides, in data set [1] (Plasmodium falciparum, 72 h), the inhibition at 5 µM was over 70%. In addition, the CC50 at 72 h in data set [4] (setting [9]) was 18.3 ± 3.51 µM.

With `CC(NC(=O)CCCNC(=O)CCC(=O)OC1OC2OC3(C)CCC4C(C)CCC(C1C)C24OO3)C(=O)O` (stereo not drawn) [LDT-598], the EC50 came out at 0.00059 µM in data set [3] (setting [10]) and 0.00078 µM in data set [1] (setting [11]). Also, the “activity more potent than artesunate” value in data set [3] is listed as “about 10 fold”. Further, the inhibition at 5 µM in data set [1] (Plasmodium falciparum, 72 h) was over 70%. Besides, the CC50 at 72 h in data set [4] (setting [9]) was determined as 25.9 ± 1.13 µM.

Consider `COc1ccc(C2c3[nH]c4ccccc4c3C[C@H]3C(=O)N(C4CC4)CC(=O)N23)cc1OC` (stereo partly drawn) [LDT-599], for which the concentration for a half-maximal effect (EC50) in data set [3] (setting [6]) was under 5 µM; in data set [3] (setting [7]) it was 2.74 ± 0.78 µM; in data set [1] (setting [5]), under 5 µM; in data set [1] (setting [8]), 3.68 ± 1.92 µM. Besides, the inhibition at 5 µM in data set [1] (Plasmodium falciparum, 72 h) was over 70%. The CC50 at 72 h in data set [4] (setting [9]) worked out at 21 ± 2.51 µM.

Take `COc1cc(C2NCCc3cc(OC)c(OC)cc32)ccc1O` (stereo not drawn) [LDT-601]: the concentration giving a half-maximal response (EC50) in data set [3] (setting [6]) worked out at 0.65 ± 0.47 µM; in data set [1] (setting [5]), 6.61 ± 3.2 µM. For the same compound, the inhibition at 5 µM in data set [1] (Plasmodium falciparum, 72 h) was over 70%. For the same compound, the cytotoxic concentration (CC50) at 72 h in data set [4] (setting [9]) was found to be 21.8 ± 4.16 µM.

Consider `COc1ccc(C2CC(=O)NC3=C2C(=O)C2(Oc4c(Cl)c(OC)cc(OC)c4C2=O)C(C)C3)cc1O` (stereo not drawn) [LDT-614], for which the results for the 50% effective concentration (EC50) in data set [3] (setting [6]) and in data set [1] (setting [5]) were 5.65 ± 3.11 µM and 5.26 ± 0.52 µM, respectively. The inhibition at 5 µM in data set [1] (Plasmodium falciparum, 72 h) is over 70%. Moreover, the cytotoxic concentration (CC50) at 72 h in data set [4] (setting [9]) was determined as 23.6 ± 1.82 µM.
